Drawing on ChEMBL document CHEMBL1123847, “Synthesis and structure-activity relationship of 1-aryl-6,8-difluoroquinolone antibacterial agents” (1987), this text covers ED50, MIC and ED50 mg/kg for five compounds.

Common to all, as to assay type: functional
For test [1], the system named is Escherichia coli. Nature of the test: […] against Escherichia coli Juhl (100 X LD50) (s.c. administration); Range is between(0.2-0.5). To be noted: sc.
For another test, the system named is Klebsiella aerogenes. Nature of the test: In vitro antibacterial activity against Enterobacter aerogenes ATCC 13048.
The test system of test [2] is Escherichia coli. Nature of the test: In vitro antibacterial activity against Escherichia coli Juhl.
For the next test, the system named is Klebsiella pneumoniae. Nature of the test: In vitro antibacterial activity against Klebsiella pneumoniae 8045.
Test [3] deals with Pseudomonas aeruginosa. Nature of the test: FIn vitro antibacterial activity against Pseudomonas aeruginosa K799/WT.
For test [4], the system named is Staphylococcus epidermidis. Nature of the test: In vitro antibacterial activity against Staphylococcus epidermis 3519.
Another test relates to Streptococcus pyogenes. Nature of the test: In vitro antibacterial activity against Streptococcus pyogenes 930.
In test [5] the test system is Staphylococcus aureus. Nature of the test: In vitro antibacterial activity against Staphylococcus aureus CMX 686B.
For test [6], the system named is Staphylococcus aureus. Nature of the test: In vitro antibacterial activity against Staphylococcus aureus ATCC 6538P.
The subject of the next test is Enterococcus faecium. Nature of the test: In vitro antibacterial activity against Streptococcus faecium ATCC 8043.
For the next test, the system named is Acinetobacter. Nature of the test: In vitro antibacterial activity against Acinetobacter CMX 669.
Test [7] concerns Pseudomonas aeruginosa. Nature of the test: In vitro antibacterial activity against Pseudomonas aeruginosa 5007.
The subject of test [8] is Pseudomonas aeruginosa. Nature of the test: In vitro antibacterial activity against Pseudomonas aeruginosa K799/WT.
For test [9], the system named is Escherichia coli. Nature of the test: […] against Escherichia coli Juhl (100 X LD50) (s.c. administration); Range is between(1.0-1.8).
The test system of test [10] is Escherichia coli. Nature of the test: […] against Escherichia coli Juhl (100 X LD50); Range is between (2.0-5.0).
Test [11] has as its system Escherichia coli. Nature of the test: Compound was evaluated in vivo for antibacterial activity against Escherichia coli Juhl (100 X LD50) (s.c. administration); range is between (0.6-2.5). To be noted: sc.
For test [12], the system named is Escherichia coli. Nature of the test: Compound was evaluated in vivo for antibacterial activity against Escherichia coli Juhl (100 X LD50).
The test system of test [13] is Pseudomonas aeruginosa. Nature of the test: […] against Pseudomonas aeruginosa 5007 (100 X LD50) (peroral administration); Range is between (15.8-[…]). To be noted: po.
Test [14] concerns Pseudomonas aeruginosa. Nature of the test: […] against Pseudomonas aeruginosa 5007 (100 X LD50) (subcutaneous administration); Range is between (4.9-8.1). The settings on record: sc.
Test [15] deals with Pseudomonas aeruginosa. Nature of the test: Compound was evaluated in vivo for antibacterial activity against Pseudomonas aeruginosa 5007 (100 X LD50) (p.o. administration); Range is between (15.8-39.6). The settings on record: po.
The subject of test [16] is Pseudomonas aeruginosa. Nature of the test: Compound was evaluated in vivo for antibacterial activity against Pseudomonas aeruginosa 5007 (100 X LD50) (s.c. administration); Range is between (4.9-8.1). The settings on record: sc.
Test [17] deals with Staphylococcus aureus. Nature of the test: Compound was evaluated in vivo for antibacterial activity against Staphylococcus aureus NCTC 10649 (100 X LD50) (p.o. administration); Range is between (7.9-19-7). To be noted: po.
Test [18] has as its system Staphylococcus aureus. Nature of the test: Compound was evaluated in vivo for antibacterial activity against Staphylococcus aureus NCTC 10649 (100 X LD50) (s.c. administration); Range is between (1.0-2.5). The settings on record: sc.
Test [19] relates to Staphylococcus aureus. Nature of the test: In vitro mouse protection test against Staphylococcus aureus NCTC 10649 (100 X LD50) (s.c. administration); Range is between (1.0-2.5). The settings on record: sc.
In test [20] the test system is Staphylococcus aureus. Nature of the test: In vitro mouse protection test against Staphylococcus aureus NCTC 10649 (100 X LD50),(peroral administration); Range is between (7.9-19-7). To be noted: po.
For test [21], the system named is Escherichia coli. Nature of the test: […] against Escherichia coli Juhl (100 X LD50) (s.c. administration); Range is between (0.6-1.5). The settings on record: sc.
Test [22] concerns Escherichia coli. Nature of the test: Compound was evaluated in vivo for antibacterial activity against Escherichia coli Juhl (100 X LD50) (p.o. administration); Range is between (2.0-5.0). To be noted: po.
For test [23], the system named is Escherichia coli. Nature of the test: […] against Escherichia coli Juhl (100 X LD50) (p.o. administration );Range is between (2.2-7.0).
The test system of test [24] is Escherichia coli. Nature of the test: […] against Escherichia coli Juhl (100 X LD50) (s.c. administration );Range is between (1.6-3.9).
The test system of test [25] is Pseudomonas aeruginosa. Nature of the test: […] against Pseudomonas aeruginosa 5007 (100 X LD50) (peroral administration );Range is between (17.7-44.1).
Test [26] relates to Pseudomonas aeruginosa. Nature of the test: […] against Pseudomonas aeruginosa 5007 (100 X LD50) (subcutaneous administration );Range is between (6.6-16.2).
The test system of test [27] is Staphylococcus aureus. Nature of the test: In vitro mouse protection test against Staphylococcus aureus NCTC 10649 (100 X LD50) (s.c. administration );Range is between (2.6-5.4). The settings on record: sc.
The test system of test [28] is Staphylococcus aureus. Nature of the test: […] against Staphylococcus aureus NCTC 10649 (100 X LD50),(peroral administration); Range is between (3.7-10.2). The settings on record: po.

Molecules are shown by their SMILES. Values after ≈ are worked out from the molar mass of the structure shown.

The compound `O=C(O)c1cn(-c2ccc(F)cc2F)c2c(F)c(N3CCNCC3)c(F)cc2c1=O` returned a median effective dose (ED50) in the test on Escherichia coli [1] of 0.3 mg/kg. For the same compound, the MIC in the test on Klebsiella aerogenes amounted to 0.2 µg/mL (≈ 0.475 µM); in the test with Escherichia coli [2], 0.05 µg/mL (≈ 0.119 µM); in the test with Klebsiella pneumoniae, 0.05 µg/mL (≈ 0.119 µM); in the test on Pseudomonas aeruginosa [3] it was 0.78 µg/mL (≈ 1.85 µM); in [4], 0.78 µg/mL (≈ 1.85 µM); in the test on Streptococcus pyogenes, 1.56 µg/mL (≈ 3.7 µM). Besides, the MIC against Staphylococcus aureus [5] was determined as 0.39 µg/mL (≈ 0.926 µM); against Staphylococcus aureus [6], 0.39 µg/mL (≈ 0.926 µM); against Enterococcus faecium, 1.56 µg/mL (≈ 3.7 µM); against Acinetobacter it was 0.39 µg/mL (≈ 0.926 µM); against Pseudomonas aeruginosa [7], 0.78 µg/mL (≈ 1.85 µM).

Consider `NC1CCN(c2c(F)cc3c(=O)c(C(=O)O)cn(-c4ccc(F)cc4F)c3c2F)C1` (stereo unspecified), for which the MIC with Klebsiella aerogenes was found to be 0.2 µg/mL (≈ 0.475 µM); in the test with Escherichia coli [2], 0.1 µg/mL (≈ 0.237 µM); against Klebsiella pneumoniae it was 0.1 µg/mL (≈ 0.237 µM); against Pseudomonas aeruginosa [8], 0.78 µg/mL (≈ 1.85 µM); in test [4], 0.39 µg/mL (≈ 0.926 µM); in the test on Streptococcus pyogenes, 0.78 µg/mL (≈ 1.85 µM). Besides, the MIC against Staphylococcus aureus [5] turned out to be 0.2 µg/mL (≈ 0.475 µM); against Staphylococcus aureus [6] it was 0.2 µg/mL (≈ 0.475 µM); in the test on Enterococcus faecium, 1.56 µg/mL (≈ 3.7 µM); against Acinetobacter it was 0.39 µg/mL (≈ 0.926 µM); against Pseudomonas aeruginosa [7] it was 1.56 µg/mL (≈ 3.7 µM).

Consider `CN1CCN(c2c(F)cc3c(=O)c(C(=O)O)cn(-c4ccc(F)cc4)c3c2F)CC1`, for which the MIC worked out at 0.78 µg/mL (≈ 1.87 µM) in the test on Klebsiella aerogenes; 0.39 µg/mL (≈ 0.934 µM) in the test on Escherichia coli [2]; 0.39 µg/mL (≈ 0.934 µM) against Klebsiella pneumoniae; 3.1 µg/mL (≈ 7.43 µM) against Pseudomonas aeruginosa [8]; 0.78 µg/mL (≈ 1.87 µM) in test [4]; 3.1 µg/mL (≈ 7.43 µM) against Streptococcus pyogenes. The MIC was 0.39 µg/mL (≈ 0.934 µM) in the test on Staphylococcus aureus [5]; 0.39 µg/mL (≈ 0.934 µM) against Staphylococcus aureus [6]; 3.1 µg/mL (≈ 7.43 µM) against Enterococcus faecium; 0.39 µg/mL (≈ 0.934 µM) with Acinetobacter; 3.1 µg/mL (≈ 7.43 µM) against Pseudomonas aeruginosa [7]. For the same compound, the ED50 mg/kg in the test on Escherichia coli [9] stood at 1.3.

On to `O=C(O)c1cn(-c2ccc(F)cc2)c2c(F)c(N3CCNCC3)c(F)cc2c1=O`, for which the ED50 in the test on Escherichia coli [10] worked out at 3.2 mg/kg; with Escherichia coli [11], 1 mg/kg; in the test on Pseudomonas aeruginosa [13], 25 mg/kg; in the test with Pseudomonas aeruginosa [14], 6.3 mg/kg; in the test on Pseudomonas aeruginosa [15], 25 mg/kg; in the test with Pseudomonas aeruginosa [16] it was 6.3 mg/kg. Moreover, the ED50 was 12.5 mg/kg with Staphylococcus aureus [17]; 1.6 mg/kg in the test on Staphylococcus aureus [18]; 1.6 mg/kg in the test on Staphylococcus aureus [19]; 12.5 mg/kg in the test with Staphylococcus aureus [20]; 1 mg/kg in the test with Escherichia coli [21]; 3.2 mg/kg with Escherichia coli [22]. The MIC amounted to 0.1 µg/mL (≈ 0.248 µM) in the test on Escherichia coli [12]; 0.1 µg/mL (≈ 0.248 µM) with Klebsiella aerogenes; 0.1 µg/mL (≈ 0.248 µM) against Escherichia coli [2]; 0.05 µg/mL (≈ 0.124 µM) in the test on Klebsiella pneumoniae; 0.39 µg/mL (≈ 0.967 µM) against Pseudomonas aeruginosa [8]; 0.78 µg/mL (≈ 1.93 µM) in test [4]. Further, the MIC was determined as 1.56 µg/mL (≈ 3.87 µM) with Streptococcus pyogenes; 0.39 µg/mL (≈ 0.967 µM) in the test on Staphylococcus aureus [5]; 0.39 µg/mL (≈ 0.967 µM) against Staphylococcus aureus [6]; 6.2 µg/mL (≈ 15.4 µM) in the test with Enterococcus faecium; 0.39 µg/mL (≈ 0.967 µM) in the test on Acinetobacter; 0.78 µg/mL (≈ 1.93 µM) in the test with Pseudomonas aeruginosa [7].

In the case of `CN1CCN(c2c(F)cc3c(=O)c(C(=O)O)cn(-c4ccc(F)cc4F)c3c2F)CC1`, the MIC was determined as 0.39 µg/mL (≈ 0.896 µM) in the test on Klebsiella aerogenes; 0.39 µg/mL (≈ 0.896 µM) with Escherichia coli [2]; 0.2 µg/mL (≈ 0.459 µM) with Klebsiella pneumoniae; 1.56 µg/mL (≈ 3.58 µM) against Pseudomonas aeruginosa [8]; 0.78 µg/mL (≈ 1.79 µM) in test [4]; 3.1 µg/mL (≈ 7.12 µM) in the test on Streptococcus pyogenes. Further, the minimal inhibitory concentration (MIC) in the test with Staphylococcus aureus [5] is 0.39 µg/mL (≈ 0.896 µM); with Staphylococcus aureus [6], 0.39 µg/mL (≈ 0.896 µM); in the test with Enterococcus faecium, 6.2 µg/mL (≈ 14.2 µM); in the test with Acinetobacter, 0.39 µg/mL (≈ 0.896 µM); against Pseudomonas aeruginosa [7], 3.1 µg/mL (≈ 7.12 µM). Moreover, the ED50 mg/kg came to 3.9 with Escherichia coli [23], 2.5 in the test with Escherichia coli [24], 27.9 in the test with Pseudomonas aeruginosa [25] and 10.3 with Pseudomonas aeruginosa [26]. The ED50 amounted to 3.7 mg/kg in the test with Staphylococcus aureus [27] and 6.1 mg/kg in the test on Staphylococcus aureus [28].
